pIC50: −log10 of the molar value.
Target: b-Raf(V600E) (Homo sapiens, UniProt P15056, V600E)
Test: Raf/Mek Amplified Luminescence Proximity Homogeneous Assay (Alpha Screen)
Assay type: biochemical
Conditions: b-Raf(V600E) approximately 4 pM; biotinylated Mek, kinase dead approximately 10 nM; ATP 10 μM; pre-incubation 60 minutes; reaction 3 hours at room temperature; read-out: mut-bRaf IC50
Procedure: Raf/Mek Amplified Luminescence Proximity Homogeneous Assay
Assay buffer: 50 mM Tris, pH 7.5, 15 mM MgCl2, 0.01% Bovine Serum Albumin (BSA), 1 mM dithiothreitol (DTT) Stop buffer: 60 mM ethylenediaminetetraacetic acid (EDTA), 0.01% Tween® 20 Bead buffer: 50 mM Tris, pH 7.5, 0.01% Tween® 20 […]
biotinylated Mek, kinase dead
Alpha Screen detection kit (available from PerkinElmer™, #6760617R)
Anti phospho-MEK1/2 (available from Cell Signaling Technology, Inc. #9121) 384 well assay plates (White Greiner® plates, #781207) […]
b-Raf(V600E) approximately 4 pM […]
biotinylated Mek, Kinase dead approximately 10 nM
Pre-incubation time with compounds 60 minutes at room temperature
Reaction time 1 or 3 hours at room temperature
Raf and biotinylated Mek, kinase dead, were combined at 2× final concentrations in assay buffer (50 mM Tris, pH 7.5, 15 mM MgCl2, 0.01% BSA and 1 mM DTT) and dispensed 10 μl per well in assay plates (Greiner white 384 well assay plates #781207) containing 0.5 μl of 40× of a raf kinase inhibitor test compound diluted in 100% DMSO. The plate was incubated for 60 minutes at room temperature.
The Raf kinase activity reaction was started by the addition of 10 μL per well of 2×ATP diluted in assay buffer. After 3 hours (bRaf(V600E)) or 1 hour (c-Raf), the reactions were stopped with the addition of 10 μL of stop reagent (60 mM EDTA). Phosphorylated product was measured using a rabbit anti-p-MEK (Cell Signaling, #9121) antibody and the Alpha Screen IgG (ProteinA) detection Kit (PerkinElmer #6760617R), by the addition of 30 μL to the well of a mixture of the antibody (1:2000 dilution) and detection beads (1:2000 dilution of both beads) in bead buffer (50 mM Tris, pH 7.5, 0.01% Tween20). The additions were carried out under dark conditions to protect the detection beads from light. A lid was placed on top of the plate and incubated for 1 hour at room temperature, then the luminescence was read on a PerkinElmer Envision instrument. The concentration of each compound for 50% inhibition (IC50) was calculated by non-linear regression using XL Fit data analysis software.

Chain of b-Raf(V600E) (P15056 whole entry V600E): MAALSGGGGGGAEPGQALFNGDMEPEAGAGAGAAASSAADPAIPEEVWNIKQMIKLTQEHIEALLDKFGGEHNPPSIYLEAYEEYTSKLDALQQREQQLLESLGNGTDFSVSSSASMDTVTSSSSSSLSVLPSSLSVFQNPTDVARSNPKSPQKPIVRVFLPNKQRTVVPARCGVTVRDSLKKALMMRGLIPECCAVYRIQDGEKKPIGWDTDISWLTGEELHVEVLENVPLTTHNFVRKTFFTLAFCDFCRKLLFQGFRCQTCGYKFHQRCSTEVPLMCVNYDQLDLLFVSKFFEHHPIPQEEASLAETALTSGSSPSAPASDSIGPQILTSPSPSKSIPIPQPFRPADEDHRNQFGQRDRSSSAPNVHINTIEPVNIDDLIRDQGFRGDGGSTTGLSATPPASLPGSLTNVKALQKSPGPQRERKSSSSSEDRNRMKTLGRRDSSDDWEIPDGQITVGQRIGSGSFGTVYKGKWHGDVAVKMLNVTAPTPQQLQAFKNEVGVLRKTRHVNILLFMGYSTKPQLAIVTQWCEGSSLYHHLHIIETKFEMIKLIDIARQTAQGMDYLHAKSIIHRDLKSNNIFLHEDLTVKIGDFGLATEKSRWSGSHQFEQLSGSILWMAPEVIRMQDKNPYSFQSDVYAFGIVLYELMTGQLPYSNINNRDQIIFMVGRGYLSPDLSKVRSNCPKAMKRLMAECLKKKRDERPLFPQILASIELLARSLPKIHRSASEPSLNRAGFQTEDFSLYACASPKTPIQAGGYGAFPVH

SMILES | pIC50
CCCS(=O)(=O)Nc1cccc(-c2nc(C(C)(C)C)sc2-c2ccnc(N)n2)c1Cl [Example 26] | 9.19
CS(=O)(=O)Nc1cc(Cl)cc(-c2nc(C3CC3)oc2-c2ccnc(N)n2)c1Cl [Example 58] | 9.46
CCCS(=O)(=O)Nc1cccc(-c2nc(C3CC3)sc2-c2ccnc(NC)n2)c1F [Example 37] | 8.30
CC(C)(C)c1nc(-c2cc(F)cc(NS(C)(=O)=O)c2Cl)c(-c2ccnc(N)n2)s1 [Example 12] | 8.05
COC(=O)N[C@@H](C)CNc1nccc(-c2sc(C(C)(C)C)nc2-c2cc(F)cc(NS(C)(=O)=O)c2Cl)n1 [Example 1, (S)-methyl 1-(4-(2-tert-butyl-4-(2-chloro-5-fluoro-3-(methylsulfonamido)phenyl)thiazol-5-yl)pyrimidin-2-ylamino)propan-2-ylcarbamate] | 9.60
CCCS(=O)(=O)Nc1cc(Cl)cc(-c2nc(C3CC3)sc2-c2ccnc(NC[C@H](C)NC(=O)OC)n2)c1Cl [Example 52] | 9.62
CCCS(=O)(=O)Nc1cccc(-c2nc(C3CC3)sc2-c2ccnc(N)n2)c1F [Example 41] | 7.96
CNc1nccc(-c2sc(C3CC3)nc2-c2cc(Cl)cc(NS(C)(=O)=O)c2Cl)n1 [Example 54] | 9.34
CCCS(=O)(=O)Nc1cccc(-c2nc(C(C)(C)C)sc2-c2ccnc(N)n2)c1F [Example 35] | 8.74
CCCS(=O)(=O)Nc1cc(F)cc(-c2nc(C(C)(C)C)sc2-c2ccnc(N)n2)c1Cl [Example 9] | 9.85
COC(=O)N[C@@H](C)CNc1nccc(-c2sc(C(C)(C)C)nc2-c2cc(Cl)cc(NS(C)(=O)=O)c2Cl)n1 [Example 49] | 9.40

Source: US20130096149A1, “HETEROARYL COMPOUNDS AND COMPOSITIONS AS PROTEIN KINASE INHIBITORS” (NOVARTIS AG, priority 2010, published 2013)
